From publication PMC10470491, “Modulation of the functional interfaces between retroviral intasomes and the human nucleosome” (mBio, 2023)
Like-named read-outs stand apart in the source and are kept apart here.

Legend:
[1] = system: HIV-1 intasome (vDNA•IN•LEDGF/p75); experiment: in vitro HIV-1 concerted integration onto mononucleosome; assay type: biochemical
histone tails = biological target: histone tails; design: method as in PMID 26503405; details: ref [18]; cited from earlier work
[2] = system: PFV intasome/nucleosome complex; experiment: AlphaLISA PFV intasome/nucleosome interaction assay; assay type: binding, prototype foamy virus (PFV); human mononucleosome; details: for inhibition of intasome/nucleosome association in AS / IC50: increasing drug concentrations; for decrease in the AS signal: OncoSET screen, 25 µM drug, 1 nM of each partner; for IC50: intasome/nucleosome AS assay, Fig. 3E; for effect on the intasome/nucleosome AS signal: retest at 10 µM, MN
Description: AlphaLISA is a technology particularly suitable for bimolecular inhibitor screening assays using protein-protein interactions with purified recombinant proteins. The AlphaLISA assay development was performed in 96-well 12 area Alphaplate (reference 6052340, PerkinElmer, Waltham, MA, USA) with a final reaction volume of 40 µL. Cross-titration experiments of biotinylated MN (0–50 nM) against DIG-intasome (0–100 nM) were carried out to establish optimal assay concentrations for the binding assay. Ten microliters of each protein were diluted in the binding buffer 50 mM BisTris-propane pH 7, 100 mM NaCl, 0.1% (v/v) Tween-20, 0.1% (w/v) BSA, and 1 mM dithiothreitol. The plate was incubated at RT for 2 h in rotation. Ten microliters of anti-DIG acceptor beads (PerkinElmer, reference AL113) were then added, and after 1 h of incubation at RT with rotation, 10 µL of streptavidin […] (Perkin Elmer, reference 6760002) was mixed to the wells. This established a final concentration of 20 µg/mL for each bead. The plate was then incubated for 1 h at RT in the dark before the AlphaLISA signal was detected using an EnSpire Multimode Plate Reader (PerkinElmer). Negative control with binding buffer or only with one of the complexes was used to control the assay quality. Data were analyzed with GraphPad Prism 5.01 software. To evaluate tolerance for DMSO, the assay was performed as described above with an addition of 0.15–20% (v/v) of DMSO during the binding step. For the competition experiment, increasing concentrations of untagged intasome were titrated out in the 1-nM DIG-intasome/biotinylated nucleosome interaction assay.
For the AlphaLISA screening assay with the NIH OncoSET library, the binding conditions were optimized for use in 384-well plate (Optiplate, reference 6007290, PerkinElmer) with the same concentrations for complexes and beads in a final reaction volume of 20.5 µL (2.5% DMSO final concentration). The screening was first carried out with 25 µM of each compound pre-incubated for 1 h with 1 nM intasome/nucleosome complexes. Compounds were selected as inducing at least 50% decrease of the AlphaLISA signal control condition, and their inhibitory effect was further tested using dose-response curves. For compounds validation, counter select assay was performed using a short DNA fragment carrying a biotin and a DIG tag on each side. The AlphaLISA signal was monitoring using increasing concentrations of the double-tagged DNA, and the selected compounds were tested in optimized conditions at 10 µM. Any compound that causes decreased signal means that it interferes with AlphaLISA readout, and therefore, it is not relevant to this assay.

PFV intasome [3] = biological target: T1, PFV intasome (Human spumaretrovirus, UniProt P14350); experiment: biochemical; assay type: biochemical, prototype foamy virus (PFV); design: Briefly, PFV IN and its cognate vDNA were mixed, and assembled intasomes were purified by size exclusion chromatography; octamers produced in E. coli; details: for inhibition of PFV integration into MNs: 30 nM FITC PFV intasome, MN, drugs 0–25 µM
Description: Integration assays using purified assembled intasomes were performed as followed: either 100 ng of naked DNA or 100 ng of DNA assembled on 100 ng of histone octamers (24 nM final concentration) was incubated with 30 nM final concentration of purified intasome in 100 mM NaCl, 20 mM BTP pH 7, 12.5 mM MgSO4 (for PFV intasome), or in 20 mM HEPES pH 7, 7.5% DMSO, 8% PEG, 10 mM MgCl2, 20 µM ZnCl2, 100 mM NaCl, 5 mM DTT final concentration (for HIV-1 intasome) in a final volume of 40 µL. The mix was then incubated at 37°C for 15 min and 1 h, respectively. Then, reaction was stopped by the addition of 5.5 µL of a mix containing 5% SDS and 0.25 M EDTA and deproteinized with proteinase K (Promega) for 1 h at 37°C. Nucleic acids were then precipitated with 150 µL of ethanol overnight at −20°C. Samples were then spun at top speed for 1 h at 4°C, and the pellets were dried and then resuspended with DNA loading buffer. Integration products were separated on an 8% native polyacrylamide gel.

HIV-1 subtype B virus [4] = experiment: HIV-1 infection assay in PBMCs (HIV-1 RNA in supernatant); assay type: cell-based; details: Human immunodeficiency virus 1, PBMC, read-out: IC50 of HIV-1 replication
Description: PBMCs were isolated from blood samples using Ficoll-Hypaque gradient centrifugation. After separation, PBMCs were pelleted by centrifugation. […] Next, PBMCs were harvested (7 min, 400 × g) and resuspended in 500 µL culture medium. […] Then, the medium was removed, and 10 mL of RPMI 1640 was added to wash the cells. The cells were harvested at low speed (400 × g), and the washed-cell pellet was resuspended in 2 mL of supplemented RPMI 1640. The cell suspension was added to wells of a 24-well tissue culture plate and incubated at 37°C. HIV-1 RNA from plasma samples was determined at 24, 48, and 72 h postinfection.

HIV-1 subtype B virus [5] = experiment: qPCR quantification of viral DNA populations in infected PBMCs; assay type: cell-based
[6] = system: Vpr-BLaM containing NL-4.3 or NL-4.3Δenv-VSV-G viruses; assay type: cell-based, HIV-1
HIV-1 intasome = details: MN assembled onto natural DO2 sequence
mononucleosome (MN) = experiment: histone eviction assay (EMSA / SDS-PAGE); assay type: biochemical, human; details: 10 µM or increasing concentrations
PFV intasome [7] = biological target: T1, PFV intasome; experiment: in vitro PFV integration into naked plasmid pBSK-601-Zeo DNA; assay type: biochemical, prototype foamy virus (PFV); design: Briefly, PFV IN and its cognate vDNA were mixed, and assembled intasomes were purified by size exclusion chromatography; made in house; details: 10 µM
Description: MNs were assembled as previously described for chromatin assembly ([7], [8]). Briefly, 5 µg of biotinylated 147 bp Widom fragment (TEBU-bio) were mixed with an excess of 10 µg of human native recombinant octamers produced in E. coli [purchased from the “Histone Source” Protein Expression and Purification (PEP) facility from the Colorado State University, https://histonesource-colostate.nbsstore.net] in Tris-HCl pH 7.7 and 2 M NaCl in 100 µl final volume. Salt dialysis was then performed to decrease the salt concentration to 0 using slide-A-Lyzer MINI dialysis device, 7 k MWCO (Fisher Scientific). Assembly was checked by electro-mobility shift assay (EMSA) on 8% native PAGE stained with SYBR safe and SDS-PAGE stained with instant blue. Eviction assays of the assembled nucleosome were incubated with increasing concentrations of drugs and then analyzed by EMSA or SDS-PAGE of the supernatant after their capture using streptavidin beads (MyONE T1 invitrogen). Naked DNA substrates (pBSK-601-Zeo vector plasmid containing 601 Widom repetitions or 147 bp 601 DNA fragment) used for comparative integration assays were treated as for nucleosome assembly. […]

| SMILES | IC50 ([1]; Table 4, title: in vitro HIV-1 integration inhibition, read-out: Integration IC50) | Kd (histone tails) | inhibition of intasome/nucleosome association in AS [2] | inhibition of PFV integration into MNs (PFV intasome [3]) | IC50 (HIV-1 subtype B virus [4]) | effect on total viral DNA (HIV-1 subtype B virus [5]; 20 h postinfection) | effect on integrated DNA (HIV-1 subtype B virus [5]; infected PBMCs) | effect on two-LTR circles (HIV-1 subtype B virus [5]; infected PBMCs) | effect on viral fusion / entry [6] | IC50 ([1]; preformed HIV-1 intasome, MN, read-out: IC50 of in vitro HIV-1 integration) | IC50 ([1]; preformed HIV-1 intasome, native MN (601), read-out: IC50 of in vitro HIV-1 integration) | cytotoxicity (PBMC cells) | inhibition of HIV-1 integration into DO2 nucleosome (HIV-1 intasome) | decrease in the AS signal [2] | IC50 [2] | effect on the intasome/nucleosome AS signal [2] | histone eviction / MN dissociation (mononucleosome (MN)) | IC50 (PFV intasome [3]) | inhibition of PFV integration into plasmid pBSK-601-Zeo DNA (PFV intasome [7]) |
| --- | --- | --- | --- | --- | --- | --- | --- | --- | --- | --- | --- | --- | --- | --- | --- | --- | --- | --- | --- |
| O=S(=O)(O)c1cc2c(O)c(c1)Cc1cc(S(=O)(=O)O)cc(c1O)Cc1cc(S(=O)(=O)O)cc(c1O)Cc1cc(S(=O)(=O)O)cc(c1O)C2 [CA1] | > 1000 nM | 17.8 to 20.4 µM | less efficient in inhibiting the association | inefficient in our assay | – | – | – | – | – | – | – | – | – | – | – | – | – | – | – |
| COc1cccc2c1C(=O)c1c(O)c3c(c(O)c1C2=O)C[C@@](O)(C(=O)CO)C[C@@H]3O[C@H]1C[C@H](N)[C@H](O)[C@H](C)O1 [Doxorubicin, doxorubicin] | – | – | – | able to inhibit PFV integration into MNs | 2 to 20 nM | no effect | decreased | increased | did not affect this early entry step | ~300 nM | < 1000 nM | poor cytotoxicity | as efficient in inhibiting the HIV-1 integration into DO2 nucleosome than onto the 601 nucleosome | at least 50% | 870 ± 40 nM | strong inhibitory effect | full shift of the nucleosomal DNA in addition to a strong MN dissociation | < 1000 nM | – |
| O=C1c2c(O)ccc(O)c2C(=O)c2c(NCCNCCO)ccc(NCCNCCO)c21 [Mitoxantrone, mitoxantrone] | – | – | – | did not show any inhibitory effect on integration | – | – | – | – | – | – | – | – | – | at least 50% | 380 ± 50 nM | strong inhibitory effect | – | – | remained inefficient |
| CC/C(=C(\c1ccccc1)c1ccc(OCCN(C)C)cc1)c1ccccc1 [Tamoxifen, tamoxifen] | – | – | only a slight inhibition effect | inefficient in inhibiting integration | – | – | – | – | – | – | – | – | – | – | – | – | – | – | remained inefficient |
